Entries after “also recorded” stand apart in the source; their conditions may differ. Non-standard residues stand in square brackets, D forms with d. No end group written: not given here. dPhe(F5) = N[C@H](Cc1c(F)c(F)c(F)c(F)c1F)C(=O)O; dBpa = N[C@H](Cc1ccc(C(=O)c2ccccc2)cc1)C(=O)O; dCha = N[C@H](CC1CCCCC1)C(=O)O
What was measured:
HCT-116 cells = assay: In vitro sensitivity test: DNA content of cells by flow cytometry; assay type: cell-based, human; details: for change in DNA content (cell cycle distribution) of HCT-116 cells: compound alone, 2, 10, or 50 μM for 3 hr
Experimental: Cells from a human colon cancer derived cell line HCT-116 were used in an in vitro sensitivity test that measures DNA content of cells by flow cytometry, and in an in vivo efficacy test that measures xenograft tumor growth. The effects of conventional anti-cancer therapy CPT-11, novel candidate anti-cancer therapy CBDC402, a combination of the two compounds, or control treatments (vehicle), were measured in each test system and compared.
In vitro sensitivity test: HCT-116 cells (from ATCC) were cultured in McCOY5A medium (Sigma Chemical Co.) with L-glutamine (Sigma Chemical Co.), penicillin-streptomycin, and 10% fetal calf serum at 37° C. in 5% CO2/air. Cultured cells (at 1.6×10^5) were pelleted by centrifugation, and then re-suspended and incubated in 300 μl Krishan's solution (0.1% sodium citrate, 50 μg/ml propidium iodide, 20 μg/ml RNase A, 0.5% Nonidet P-40) for 1 h at 4° C. The quantity of DNA in each cell was determined using a fluorescence activated cell scanner (FACScan® Beckton Dickinson, Mountain View, Calif.), and results were analyzed using CELLQuest® software (Beckton Dickinson).
The DNA content of each cell was measured at 24 hr.
In vitro sensitivity test: The in vitro sensitivity test using HCT-116 cells and flow cytometry was carried out as described above, with the modification that CBDC004 was used instead of CBDC402. The DNA content of each cell was measured at 24 hr.

HCT-116 xenografts = assay: Surrogate in vivo efficacy test: HCT-116 xenograft tumor assay; set-up: species or system SCID mice; details: for HCT-116 xenograft tumor growth, combination: intraperitoneal, two weeks
Experimental: HCT-116 cells were implanted by subcutaneous injection of the cells into male SCID mice (Severe Combined Immunodeficient mice, Charles River Lab., Wilmington, Mass.). Treatment was initiated when the tumor size reached about 0.2 cm^3 in size. The size of tumors was measured three times per week, using calipers. Tumor volumes were calculated as follows: volume (cm^3)=[width (mm)^2×length (mm)]/2000. Mean tumor sizes (volumes) with standard deviation were plotted (FIG. 1b). Animals were housed in accordance with guidelines from American Association for Laboratory Animal Care and the protocols were approved by institutional animal care committee of CanBas Co. Ltd
Established HCT-116 xenografts (0.2 cm^3) in SCID mice were treated for two weeks by intraperitoneal injection of the following: vehicle alone (DMSO, two times per week), CBDC402 (40 mg/kg; two times per week), CPT-11 (20 mg/kg; one time per week) or the combination of CBDC402 (two times per week) and CPT-11 (one time per week). […] The results correlate with the prediction based on results from the in vitro sensitivity test using CBDC004 as described above.
Surrogate in vivo efficacy test: A surrogate in vivo efficacy test measuring the effects of various compounds on HCT-116 xenograft tumor growth was carried out as described above, with the modification that CBDC004 was used instead of CBDC402.
Established HCT-116 xenografts (0.2 cm^3) in SCID mice were treated for two weeks by intraperitoneal injection of the following: vehicle alone (DMSO, two times per week), CBDC004 (30 mg/kg; three times per week), CPT-11 (20 mg/kg; one time per week) or the combination of […] (two times per week) and CPT-11 (one time per week). […] The results correlate with the prediction based on results from the in vitro sensitivity test using CBDC004 as described above.

[1] = tested on: MIAPaCa2 cells xenograft tumors; assay: Surrogate in vivo efficacy test: MIAPaCa2 xenograft tumor assay; set-up: species or system SCID mice
Experimental: Surrogate in vivo efficacy test: A surrogate in vivo efficacy test using the xenograft tumor assay was carried out as described above, with modifications. MIAPaCa2 cells (n=5) were implanted by subcutaneous injection of the cells to male SCID mice (Charles River Lab., Wilmington, Mass.). Treatment was initiated when tumor size reached about 0.15 cm^3 in size. The size of tumors was measured three times per week, using calipers. Tumor volumes were calculated as follows: volume (cm^3)=[width (mm)^2×length (mm)]/2000. Mean tumor sizes (volumes) with standard deviation were plotted (FIG. 1b). Animals were housed in accordance with guidelines from American Association for Laboratory Animal Care and the protocols were approved by institutional animal care committee of CanBas Co. Ltd.
Established […] xenografts (0.2 cm^3) in SCID mice were treated two times each week for two weeks (i.e., on day 1, 5, 8, and 12) by intraperitoneal injection of the following: vehicle alone (DMSO); CBP501 (120 mg/m^2); cisplatin (CDDP, 3 mg/kg); a combination of CBP501 (30 mg/m^2) and cisplatin (CDDP, 3 mg/kg); a combination of CBP501 (60 mg/m^2) and cisplatin (CDDP, 3 mg/kg); or CBP501 (120 mg/m^2) and cisplatin (CDDP, 3 mg/kg).

MIAPaCa2 cells = assay: In vitro sensitivity test: laser scanning cytometry of cultured xenograft tumor cells on chamber slides; details: for anti-cancer efficacy in vitro, human cancerous cells in culture: each compound alone (summary of Example 3)
Experimental: As a simulation of the sensitivity test for the clinical situation, established xenograft tumors of MIAPaCa2 cells in SCID mice were extracted from the mice and cultured in vitro in the presence or absence of a conventional anti-cancer therapy and a novel candidate anti-cancer therapy CBP501 (SEQ ID NO: 26), according to the protocol as follows.
Xenograft tumors of MIAPaCa2 cells were excised from xenograft tumor bearing mice and place in a 10 cm plate with 10 ml of complete culture medium (DMEM (Dainihonseiyaku Co., Osaka, Japan) with 2.5% horse serum (Invitrogen Co., Carlsbad, Calif.) for MIAPaCa2 with 10% fetal calf serum (Equitech-bio, Kerrville, Tex.) at 37° C. with 5% CO2/air). The tissue was sliced into small pieces and non-tumor tissue was removed to the extent possible. The sliced pieces were placed in another 10 cm plate with complete culture medium and minced with a razor blade. The cells were then dispersed in culture medium by pipetting, and centrifuged for 5 min at 1200×g.
The cell pellet was then incubated in buffer containing collagenase for 2 hours at 37° C. After centrifuging a second time, the cell pellet was incubated in buffer containing trypsin for 5 min at room temperature, then suspended in the culture medium, passed through nylon mesh, and re-centrifuged. Pelleted cells were resuspended and the resuspended cells were seeded onto chamber slides and cultured overnight in an incubator.
Cells in chamber slides were treated with anti-cancer therapies or control treatments as follows: control solution, CBP501 (SEQ ID NO: 26) at 10 μM, cisplatin (CDDP) at 10 μg/ml, or a combination of CBP501 and cisplatin were added to chamber slides and incubated for 3 hours. Culture medium was changed and chamber slides were cultured for an additional 24 to 48 hours.
At the beginning of the designated day (day 3, 4, or 5), medium was aspirated from chamber slides and cells were fixed by addition of 70% ethanol followed by incubation for 15 minutes at room temperature. The supernatant was discarded, and phosphate buffered saline with 50 μg/ml propidium iodide (Sigma, St. Louis, Mo.) with 0.1% RNase (Sigma) was added to the slides and incubated for 30 minutes at room temperature. Cells on the chamber slides were then analyzed by Laser Scanning Cytomery (LSC® System, with Olympus microscope).

[2] = compound 2, 10, 50 μM for 3 hr in combination with CPT-11 50 μM for 3 hr, measured at 24 hr
[3] = CBP501 10 μM combined with cisplatin 10 μg/ml, 3 hours, then cultured 24 to 48 hours
[4] = CPT-11 alone, 50 μM for 3 h, DNA content measured at 24 hr

Q: Cc1ccc(OC(=O)c2ccc(Br)cc2)cc1 [CBDC402, 4-Bromo-benzoic acid p-tolyl ester] was tested. Which “change in DNA content / G2/M and G1 populations of HCT-116 cells, combination treatment” value (HCT-116 cells; [2]) did it give?
A: Its value is “decrease in the accumulation of both the CPT-11-induced G2/M population and G1 population”.

Q: And the “subG1 (dead cell) population of HCT-116 cells, combination treatment” value (HCT-116 cells; [2])?
A: Its value is “increase in the subG1 (dead cell) population”.

Q: And the “change in DNA content (cell cycle distribution) of HCT-116 cells” value (HCT-116 cells; DNA content measured at 24 hr)?
A: The value was “did not alter the DNA content”.

Q: What about the “HCT-116 xenograft tumor growth, combination” value (HCT-116 xenografts; CBDC402 (two times per week) plus CPT-11 (one time per week)) of the same compound?
A: Its value is “strong tumor suppressive activity”.

Q: What about the “HCT-116 xenograft tumor growth” value (HCT-116 xenografts; CBDC402 alone, 40 mg/kg intraperitoneal, two times per week for two weeks) of the same compound?
A: The value was “did not suppress tumor growth significantly”.

Q: How did the xenograft tumor growth ([1]; cisplatin alone, 3 mg/kg intraperitoneal, two times each week for two weeks) turn out when N.N.[Cl][Pt][Cl] [cisplatin, reference compound] was run?
A: Its xenograft tumor growth is “little or no effect on tumor growth”.

Q: And the “change in cell cycle distribution of cultured MIAPaCa2 xenograft tumor cells” value (MIAPaCa2 cells; cisplatin alone, 10 μg/ml for 3 hours, then cultured 24 to 48 hours)?
A: The value was “accumulation of cells in G2/M phase”.

Q: And the “anti-cancer efficacy in vitro, human cancerous cells in culture” value (MIAPaCa2 cells)?
A: The value was “some anti-cancer efficacy”.

Q: For “(d-Bpa)(d-Ser)(d-Trp)(d-Ser)(d-Phe-2,3,4,5,6-F)(d-Cha)(d-Arg)(d-Arg)(d-Arg)(d-Gln)(d-Arg)(d-Arg) ([dBpa][dS][dW][dS][dPhe(F5)][dCha][dR][dR][dR][dQ][dR][dR]) [CBP501]”, which “xenograft tumor growth, combination” value ([1]; CBP501 (30, 60 or 120 mg/m^2) combined with cisplatin 3 mg/kg, intraperitoneal, two times each week for two weeks) is on record?
A: The value was “more effective than either compound alone; also recorded: significant inhibition of xenograft tumor growth”.

Q: What about the xenograft tumor growth ([1]; CBP501 alone, 120 mg/m^2 intraperitoneal, two times each week for two weeks (day 1, 5, 8, 12)) of the same compound?
A: The xenograft tumor growth was “little or no effect on tumor growth; also recorded: did not significantly inhibit xenograft tumor growth”.

Q: And the “G1 and G2/M peaks of cultured MIAPaCa2 xenograft tumor cells, combination” value (MIAPaCa2 cells; [3])?
A: Its value is “dramatically decreased both the G1 and G2/M peaks”.

Q: What about the “sub-G1 population of cultured MIAPaCa2 xenograft tumor cells, combination” value (MIAPaCa2 cells; [3]) of the same compound?
A: Its value is “increased the sub-G1 population”.

Q: And the “change in cell cycle distribution of cultured MIAPaCa2 xenograft tumor cells” value (MIAPaCa2 cells; CBP501 alone, 10 μM for 3 hours, then cultured 24 to 48 hours)?
A: Its value is “cell cycle distribution was not significantly altered”.

Q: What about the “cell death in the population of tumor cells by direct observation of cell morphology, combination” value (MIAPaCa2 cells; CBP501 combined with cisplatin) of the same compound?
A: The value was “dramatic increase in cell death”.

Q: And the “anti-cancer effect in vitro, human cancerous cells in culture, combination” value (MIAPaCa2 cells; CBP501 combined with cisplatin (summary of Example 3))?
A: The value was “more pronounced anti-cancer effect”.

Q: And the “anti-cancer efficacy in vitro, human cancerous cells in culture” value (MIAPaCa2 cells)?
A: The value was “some anti-cancer efficacy”.

Q: Which results are given for CCc1c2c(nc3ccc(OC(=O)N4CCC(N5CCCCC5)CC4)cc13)-c1cc3c(c(=O)n1C2)COC(=O)[C@]3(O)CC [CPT-11, irinotecan, reference compound]?
A: change in cell cycle distribution (G1, G2/M populations) of HCT-116 cells (HCT-116 cells; [4]): changed the cell cycle distribution dramatically; sub-G1 (dead cell) population of HCT-116 cells (HCT-116 cells; [4]): no increase in the sub-G1 population; HCT-116 xenograft tumor growth (HCT-116 xenografts; CPT-11 alone, 20 mg/kg intraperitoneal, one time per week for two weeks): moderate tumor suppressive activity

Q: With COc1ccc(OC(=O)c2ccc(Cl)cc2)cc1 [CBDC004, 4-Chloro-benzoic acid 4-methoxy-phenyl ester] as the compound, how does the “change in DNA content / G2/M and G1 populations of HCT-116 cells, combination treatment” value (HCT-116 cells; [2]) read?
A: The value was “did not change the DNA content more than CPT-11 alone”.

Q: And the “change in DNA content (cell cycle distribution) of HCT-116 cells” value (HCT-116 cells; DNA content measured at 24 hr)?
A: Its value is “did not alter the DNA content”.

Q: What about the “HCT-116 xenograft tumor growth” value (HCT-116 xenografts; CBDC004 alone, 30 mg/kg intraperitoneal, three times per week for two weeks) of the same compound?
A: Its value is “did not suppress tumor growth”.

Q: What about the “HCT-116 xenograft tumor growth, combination” value (HCT-116 xenografts; CBDC004 in combination with CPT-11 (one time per week)) of the same compound?
A: The value was “did not suppress tumor growth”.

Reference: patent US7358046B2, “Sensitivity test to predict efficacy of anti-cancer therapies” (Canbas Co., Ltd., priority 2003, dated 2008)
